Data on 22 compounds can be found in US5580871A, “4-Heteroaryl- 1,4-dihydropyridine compounds with calcium agonist and alpha1 -antagonist activity” (The Dupont Merck Pharmaceutical Company, priority 1995, dated 1996).

Some results are limits rather than exact numbers.

One assay deals with alpha1-adrenoceptor. Put plainly: [3H]-Prazosin binding assay (affinity for alpha1-adrenoceptors). The conditions noted are these: partially purified rat brain membranes; 0.2 nM [3H]-prazosin, 60 min, 25° C. The procedure: The [^3 H]-prazosin binding assay was carried out according to the method described by Timmermans, P. B. M. W. M., Schoop, A. M. C., and Van Zwieten, P. A., Biochem. Pharmacol., 31, 899-905, (1982). The reaction mixture contained partially purified rat brain membranes (source of alpha1 -adrenoceptors), 0.2 nM [^3 H]-prazosin with or without potential displacer in Tris buffer. The mixture was incubated for 60 minutes at 25° C. and subsequently terminated by rapid filtration through glass fiber-filter. Receptor-bound [^3 H]-prazosin trapped in the filter was quantitated by scintillation counting. The inhibitory concentration (IC50) of potential displacer which gives 50% displacement of the total specifically bound [^3 H]-prazosin is presented as a measure of the affinity of such compound for the alpha1 -adrenoceptor.

In a further assay the target is T1, Ca^2+ channel (Rattus norvegicus, UniProt P22002).
T1 construct: rat cardiac microsomes (source of Ca^2+ channels); from tissue; host or cells: rat cardiac microsomes
T1 sequence (P22002 whole entry, other chains not shown): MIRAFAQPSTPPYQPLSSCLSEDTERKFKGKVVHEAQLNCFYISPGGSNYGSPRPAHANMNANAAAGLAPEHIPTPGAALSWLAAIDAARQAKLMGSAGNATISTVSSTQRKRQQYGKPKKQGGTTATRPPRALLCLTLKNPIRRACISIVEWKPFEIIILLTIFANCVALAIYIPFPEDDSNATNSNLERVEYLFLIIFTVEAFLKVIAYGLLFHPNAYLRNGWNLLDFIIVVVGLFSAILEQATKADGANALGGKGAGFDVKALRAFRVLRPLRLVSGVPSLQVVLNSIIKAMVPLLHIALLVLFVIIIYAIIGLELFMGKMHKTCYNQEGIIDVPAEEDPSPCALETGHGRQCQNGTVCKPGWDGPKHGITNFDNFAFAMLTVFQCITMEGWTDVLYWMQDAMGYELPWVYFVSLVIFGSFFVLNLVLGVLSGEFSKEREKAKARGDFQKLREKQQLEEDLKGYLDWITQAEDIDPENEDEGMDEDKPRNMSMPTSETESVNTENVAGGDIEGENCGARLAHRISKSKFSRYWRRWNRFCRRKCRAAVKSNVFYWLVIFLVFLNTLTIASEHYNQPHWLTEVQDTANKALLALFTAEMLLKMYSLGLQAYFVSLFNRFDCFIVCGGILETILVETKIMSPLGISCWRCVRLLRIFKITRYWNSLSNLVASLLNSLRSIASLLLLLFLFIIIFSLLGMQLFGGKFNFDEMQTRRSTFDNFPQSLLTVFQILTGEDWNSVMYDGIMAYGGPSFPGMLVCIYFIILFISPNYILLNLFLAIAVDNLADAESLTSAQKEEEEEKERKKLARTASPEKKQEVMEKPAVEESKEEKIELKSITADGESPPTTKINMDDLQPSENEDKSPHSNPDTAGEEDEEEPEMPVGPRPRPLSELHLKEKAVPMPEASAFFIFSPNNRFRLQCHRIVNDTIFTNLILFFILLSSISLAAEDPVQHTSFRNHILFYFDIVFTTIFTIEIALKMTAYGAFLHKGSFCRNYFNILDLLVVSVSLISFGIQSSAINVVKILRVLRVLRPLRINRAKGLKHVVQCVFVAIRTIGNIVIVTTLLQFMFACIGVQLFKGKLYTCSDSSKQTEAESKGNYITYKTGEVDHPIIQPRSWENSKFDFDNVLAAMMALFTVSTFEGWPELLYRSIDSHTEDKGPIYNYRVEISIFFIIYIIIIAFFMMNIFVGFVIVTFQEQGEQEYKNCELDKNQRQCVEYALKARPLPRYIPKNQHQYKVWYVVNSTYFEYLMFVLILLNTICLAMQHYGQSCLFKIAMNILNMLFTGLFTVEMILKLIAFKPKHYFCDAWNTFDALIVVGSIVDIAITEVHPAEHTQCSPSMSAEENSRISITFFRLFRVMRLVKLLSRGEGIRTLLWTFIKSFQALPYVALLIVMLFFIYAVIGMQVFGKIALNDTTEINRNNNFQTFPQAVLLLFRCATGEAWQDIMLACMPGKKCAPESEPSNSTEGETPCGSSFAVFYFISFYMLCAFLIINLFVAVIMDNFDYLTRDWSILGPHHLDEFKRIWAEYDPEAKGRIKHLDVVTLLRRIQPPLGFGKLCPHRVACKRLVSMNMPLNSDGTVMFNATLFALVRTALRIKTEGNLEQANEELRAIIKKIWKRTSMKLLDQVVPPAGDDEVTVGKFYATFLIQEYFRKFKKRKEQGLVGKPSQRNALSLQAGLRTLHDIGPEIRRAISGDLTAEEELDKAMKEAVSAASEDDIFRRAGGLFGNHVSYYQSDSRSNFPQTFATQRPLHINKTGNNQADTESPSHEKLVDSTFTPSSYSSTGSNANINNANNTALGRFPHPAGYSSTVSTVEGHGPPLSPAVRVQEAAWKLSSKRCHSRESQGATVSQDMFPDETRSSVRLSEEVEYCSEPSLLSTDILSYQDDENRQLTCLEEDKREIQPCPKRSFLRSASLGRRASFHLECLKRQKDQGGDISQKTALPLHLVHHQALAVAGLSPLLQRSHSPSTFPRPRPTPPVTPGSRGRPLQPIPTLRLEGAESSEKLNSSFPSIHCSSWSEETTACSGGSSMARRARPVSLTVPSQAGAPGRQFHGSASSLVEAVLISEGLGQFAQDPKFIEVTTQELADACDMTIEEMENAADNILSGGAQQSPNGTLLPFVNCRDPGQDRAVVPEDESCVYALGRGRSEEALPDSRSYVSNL
T1 sequence (P54290 25-944 partner limits assumed, other chains not shown): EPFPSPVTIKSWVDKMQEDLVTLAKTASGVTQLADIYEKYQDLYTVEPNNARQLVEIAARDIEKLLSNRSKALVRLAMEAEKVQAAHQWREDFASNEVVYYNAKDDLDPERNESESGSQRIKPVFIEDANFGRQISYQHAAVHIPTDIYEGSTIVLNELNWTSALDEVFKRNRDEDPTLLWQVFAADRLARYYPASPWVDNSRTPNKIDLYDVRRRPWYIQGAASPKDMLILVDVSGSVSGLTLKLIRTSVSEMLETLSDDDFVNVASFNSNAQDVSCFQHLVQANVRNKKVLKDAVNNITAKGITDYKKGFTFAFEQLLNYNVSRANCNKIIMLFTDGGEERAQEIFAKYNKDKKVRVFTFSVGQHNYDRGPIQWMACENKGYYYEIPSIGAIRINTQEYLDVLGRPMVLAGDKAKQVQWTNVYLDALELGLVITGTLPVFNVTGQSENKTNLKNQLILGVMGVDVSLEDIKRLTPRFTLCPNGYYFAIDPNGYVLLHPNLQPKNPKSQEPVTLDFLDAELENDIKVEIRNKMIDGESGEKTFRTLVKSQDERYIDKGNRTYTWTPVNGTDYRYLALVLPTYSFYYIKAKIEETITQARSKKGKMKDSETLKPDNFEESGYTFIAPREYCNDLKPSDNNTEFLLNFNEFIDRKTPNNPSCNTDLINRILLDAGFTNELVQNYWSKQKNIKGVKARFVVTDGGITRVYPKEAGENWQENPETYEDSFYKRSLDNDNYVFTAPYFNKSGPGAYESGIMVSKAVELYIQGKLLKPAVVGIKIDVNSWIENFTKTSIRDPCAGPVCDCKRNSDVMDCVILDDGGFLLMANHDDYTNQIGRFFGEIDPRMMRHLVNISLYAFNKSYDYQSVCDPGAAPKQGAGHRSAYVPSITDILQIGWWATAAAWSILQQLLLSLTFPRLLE
T1 sequence (P54290 945-1091 partner limits assumed, other chains not shown): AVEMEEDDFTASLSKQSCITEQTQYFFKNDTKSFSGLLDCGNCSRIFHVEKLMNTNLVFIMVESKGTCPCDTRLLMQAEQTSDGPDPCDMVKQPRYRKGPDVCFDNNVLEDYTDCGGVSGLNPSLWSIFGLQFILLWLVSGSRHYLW
Put plainly: [3H]-Nitrendipine binding assay (affinity for calcium channels). The conditions noted are these: rat cardiac microsomes; 0.5 nM [3H]-nitrendipine, 60 min, 25° C. The procedure: [^3 H]-Nitrendipine binding assay was carried out according to the method described by G. T. Bolger, et al., Biochem. Biophys. Res. Comm., 104, 1604-1609, (1982). The reaction mixture contained rat cardiac microsomes (source of Ca^2+ channels), 0.5 nM [^3 H]-nitrendipine with or without potential displacer in Tris buffer. The mixture was incubated for 60 minutes at 25° C. and subsequently terminated by rapid filtration through a glass fiber-filter. Membrane-bound [^3 H]-nitrendipine trapped in the filter was quantitated by scintillation counting. The inhibitory concentration (IC50) of potential displacer which gives 50% displacement of the total specifically bound [^3 H]-nitrendipine is presented as a measure of the affinity of such compound for the Ca^2+ channel.

A further assay has as its system guinea pig left atria. Nature of the assay: Positive inotropic effect in guinea pig left atria. Particulars: Cavia porcellus; for EC50: concentration that increases developed tension (DT) by 50% above the control DT, left atria paced at 2 Hz, 37° C.; for Emax: ratio of the maximum effect of the test compound to that of Bay K8644, read-out: Intrinsic Activity. The procedure: Guinea pigs are killed by cervical dislocation. The left atria are removed and mounted at 1 gm resting tension in tissue baths containing oxygenated Krebs bicarbonate solution which is kept at 37° C. The left atria are electrically paced at 2 Hz with square wave pulses of 1 msec duration. The voltage is set at 1.5×threshold level.
After a one hour equilibration period, control values for developed tension (DT, gm) are recorded. Test compounds are then added to the baths, in a cumulative manner to a maximum concentration of 10^-4, to obtain a concentration-response curve. Treatment values of DT are obtained after the drug effect has reached a plateau and the exposure time for each concentration is 5-8 minutes. Percent change of the treatment value from the control value is calculated at each concentration of the test compound.

Regarding `COc1ccccc1N1CCN(CCOC(=O)C2=C(C)NC(C)=C([N+](=O)[O-])C2c2ccoc2)CC1` (stereo not shown) [Example 55, 4-(3-Furanyl)-1,4-dihydro-2,6-dimethyl-5-nitro-3-pyridinecarboxylic acid, {2-[4-(2-methoxyphenyl)-1-piperazinyl]ethyl} ester], the IC50 at alpha1-adrenoceptor worked out at 0.1 µM; on Ca^2+ channel it was 5.1 µM. In the assay on guinea pig left atria, this compound displayed an EC50 of 1 µM. In addition, the Emax in the assay on guinea pig left atria is 169%.

For the compound `COc1ccccc1N1CCN(CCCCOC(=O)C2=C(C)NC(C)=C([N+](=O)[O-])C2c2ccsc2)CC1` (stereo not shown) [Example 71], the IC50 on alpha1-adrenoceptor came to 0.078 µM; on Ca^2+ channel it was 1.7 µM. In the assay on guinea pig left atria, the Emax was determined as 40%.

As to `CC1=C(C(=O)OCCCCN2CCN(c3ncccn3)CC2)C(c2cccs2)C([N+](=O)[O-])=C(C)N1` (stereo not shown) [Example 64], the IC50 on alpha1-adrenoceptor and on Ca^2+ channel was 1.2 µM throughout. The compound also registered an EC50 in the assay with guinea pig left atria of 3.4 µM. Besides, in the assay on guinea pig left atria, the Emax stood at 76%.

With `COC(=O)C1=C(C)NC(C)=C([N+](=O)[O-])C1c1ccccc1OCCCCCN1CCN(C(=O)c2ccco2)CC1` (stereo not shown) [Example 5], at alpha1-adrenoceptor, the IC50 worked out at 2.2 µM. Besides, on Ca^2+ channel, the 50% inhibitory concentration (IC50) is 0.68 µM. In the assay on guinea pig left atria, the EC50 amounted to 3 µM and the Emax was 269%.

With `COc1ccccc1N1CCN(CCCCOC(=O)C2=C(C)NC(C)=C([N+](=O)[O-])C2c2ccco2)CC1` (stereo not shown) [Example 69], the IC50 came out at 0.035 µM at alpha1-adrenoceptor and 2 µM on Ca^2+ channel. This compound also returned an EC50 with guinea pig left atria of 62 µM. Moreover, in the assay with guinea pig left atria, the Emax was 60%.

Take `COc1ccccc1N1CCN(CCCCOC(=O)C2=C(C)NC(C)=C([N+](=O)[O-])C2c2cccs2)CC1` (stereo not shown) [Example 63]: the IC50 at alpha1-adrenoceptor came out at 0.06 µM. On Ca^2+ channel, the IC50 amounted to 2.2 µM. In the assay with guinea pig left atria, the EC50 is 12 µM and the Emax was 75%.

As to `CC1=C(C(=O)OCCCCN2CCN(c3ncccn3)CC2)C(c2ccoc2)C([N+](=O)[O-])=C(C)N1` (stereo not shown) [Example 68, 4-(3-Furanyl)-1,4-dihydro-2,6-dimethyl-5-nitro-3-pyridinecarboxylic acid, {4-[4-(2-pyrimidinyl)-1-piperazinyl]butyl} ester], the 50% inhibitory concentration (IC50) at alpha1-adrenoceptor is 0.85 µM; on Ca^2+ channel, 2.7 µM. The compound also returned an EC50 in the assay on guinea pig left atria of 3.7 µM. The Emax in the assay on guinea pig left atria is 147%.

In the case of `COC(=O)C1=C(C)NC(C)=C([N+](=O)[O-])C1c1ccccc1OCCCCCN1CCN(c2ccc(OC(C)C)nn2)CC1` (stereo not shown) [Example 8], at alpha1-adrenoceptor, the IC50 was found to be 15 µM. On Ca^2+ channel, the IC50 was 0.58 µM. In addition, in the assay with guinea pig left atria, the EC50 worked out at 15 µM and the Emax is 113%.

Consider `COC(=O)C1=C(C)NC(C)=C([N+](=O)[O-])C1c1ccccc1OCCCCCN1CCN(c2cnccn2)CC1` (stereo not shown) [Example 10], for which, on alpha1-adrenoceptor, the IC50 worked out at 7.2 µM. The IC50 on Ca^2+ channel was found to be 1.2 µM. Further, in the assay on guinea pig left atria, the EC50 was 2.8 µM and the Emax was determined as 55%.

At alpha1-adrenoceptor, `COc1ccccc1N1CCN(CCOC(=O)C2=C(C)NC(C)=C([N+](=O)[O-])C2c2cccc3nonc23)CC1` (stereo not shown) [Example 75] registered an IC50 of 0.47 µM. For the same compound, the IC50 on Ca^2+ channel is 0.085 µM. Also, in the assay on guinea pig left atria, the EC50 turned out to be 0.4 µM and the Emax is 82%.

In the case of `COC(=O)C1=C(C)NC(C)=C([N+](=O)[O-])C1c1ccccc1[S+]([O-])CCCCN1CCN(c2ccccc2OC)CC1` (stereo not shown) [Example 4], the IC50 amounted to 0.02 µM on alpha1-adrenoceptor and 0.89 µM at Ca^2+ channel. Moreover, in the assay with guinea pig left atria, the Emax was 43%.

`CC1=C(C(=O)OCCCCN2CCN(c3ncccn3)CC2)C(c2cccn2C)C([N+](=O)[O-])=C(C)N1` (stereo not shown) [Example 58, 1,4-Dihydro-2,6-dimethyl-4-(1-methyl-1H-pyrrol-2-yl)-5-nitro-3-pyridinecarboxylic acid, {4-[4-(2-pyrimidinyl)-1-piperazinyl]butyl} ester]: the values for the IC50 at alpha1-adrenoceptor and on Ca^2+ channel were 0.75 µM and 1.8 µM, respectively. Further, the EC50 with guinea pig left atria stood at 0.84 µM. In addition, the Emax in the assay on guinea pig left atria is 195%.

In turn, `COc1ccccc1N1CCN(CCOC(=O)C2=C(C)NC(C)=C([N+](=O)[O-])C2c2ccsc2)CC1` (stereo not shown) [Example 65, 1,4-Dihydro-2,6-dimethyl-5-nitro-4-(3-thienyl)-3-pyridinecarboxylic acid, {2-[4-(2-methoxyphenyl)-1-piperazinyl]ethyl} ester] displayed an IC50 on alpha1-adrenoceptor of 0.18 µM. The IC50 on Ca^2+ channel was 0.86 µM. Besides, in the assay with guinea pig left atria, the EC50 amounted to 1 µM and the Emax turned out to be 225%.

Consider `COc1ccccc1N1CCN(CCOC(=O)C2=C(C)NC(C)=C([N+](=O)[O-])C2c2cccn2C)CC1` (stereo not shown) [Example 77, 1,4-Dihydro-2,6-dimethyl-4-(1-methyl-1H-pyrrol-2-yl)-5-nitro-3-pyridinecarboxylic acid, {2-[4-(2-methoxyphenyl)-1-piperazinyl]ethyl} ester], for which the concentration for half-maximal inhibition (IC50) at alpha1-adrenoceptor came to 0.11 µM. Further, the IC50 at Ca^2+ channel is 1.1 µM. Also, in the assay on guinea pig left atria, the EC50 amounted to 0.23 µM and the Emax was determined as 240%.

As for `CC1=C(C(=O)OCCCCN2CCN(c3ncccn3)CC2)C(c2ccsc2)C([N+](=O)[O-])=C(C)N1` (stereo not shown) [Example 72], the IC50 at alpha1-adrenoceptor amounted to 1 µM. For the same compound, the IC50 on Ca^2+ channel turned out to be 1.6 µM. Further, in the assay on guinea pig left atria, the EC50 came out at 12 µM and the Emax came to 70%.

At alpha1-adrenoceptor, `CC1=C(C(=O)OCCCCN2CCN(c3ncccn3)CC2)C(c2cccc3nonc23)C([N+](=O)[O-])=C(C)N1` (stereo not shown) [Example 54] returned an IC50 of 0.82 µM. In addition, on Ca^2+ channel, the IC50 worked out at 0.29 µM. In the assay on guinea pig left atria, the EC50 is > 100 µM and the Emax stood at 21%.

At alpha1-adrenoceptor, `COc1ccccc1N1CCN(CCCCOC(=O)C2=C(C)NC(C)=C([N+](=O)[O-])C2c2cccc3nonc23)CC1` (stereo not shown) [Example 51, 4-(4-Benzofurazanyl)-1,4-dihydro-2,6-dimethyl-5-nitro-3-pyridinecarboxylicacid, {4-[4-(2-methoxyphenyl)-1-piperazinyl]butyl} ester] yielded a concentration for half-maximal inhibition (IC50) of 0.12 µM. The IC50 at Ca^2+ channel stood at 0.11 µM. Besides, in the assay on guinea pig left atria, the EC50 was 11 µM and the Emax is 175%.

Consider `COC(=O)C1=C(C)NC(C)=C([N+](=O)[O-])C1c1ccccc1OCCCCCN1CCC(c2ccccc2)CC1` (stereo not shown) [Example 6], for which the half-maximal inhibitory concentration (IC50) at alpha1-adrenoceptor amounted to 0.9 µM. For the same compound, on Ca^2+ channel, the IC50 is 0.36 µM. Further, in the assay on guinea pig left atria, the EC50 is 2 µM and the Emax was 207%.

Take `COc1ccccc1N1CCN(CCCCOC(=O)C2=C(C)NC(C)=C([N+](=O)[O-])C2c2cccnc2)CC1` (stereo not shown) [Example 52]: the IC50 at alpha1-adrenoceptor came to 0.052 µM; on Ca^2+ channel it was 3.9 µM. The Emax in the assay on guinea pig left atria was 35%.

Take `CCCOc1cc(N2CCN(CCCCCOc3ccccc3C3C(C(=O)OC)=C(C)NC(C)=C3[N+](=O)[O-])CC2)ncn1` (stereo not shown) [Example 11]: the IC50 at alpha1-adrenoceptor came to 5.3 µM; on Ca^2+ channel it was 0.36 µM. This compound also showed an EC50 with guinea pig left atria of 43 µM. Besides, in the assay with guinea pig left atria, the Emax was determined as 68%.

For `COC(=O)C1=C(C)NC(C)=C([N+](=O)[O-])C1c1ccoc1CCCCCN1CCN(c2ccccc2OC)CC1` (stereo not shown) [Example 1, 1,4-Dihydro-4-(2-{5-[4-(2-methoxyphenyl)-1-piperazinyl]pentyl}-3-furanyl)-2,6-dimethyl-5-nitro-3-pyridinecarboxylic acid, methyl ester], the IC50 on alpha1-adrenoceptor amounted to 0.13 µM; on Ca^2+ channel it was 0.6 µM. In the assay with guinea pig left atria, the EC50 was 5 µM. Besides, in the assay on guinea pig left atria, the Emax turned out to be 188%.

For `COC(=O)C1=C(C)NC(C)=C([N+](=O)[O-])C1c1ccccc1S(=O)(=O)CCCCN1CCN(c2ccccc2OC)CC1` (stereo not shown) [Example 3], the IC50 at alpha1-adrenoceptor was 0.063 µM. The IC50 at Ca^2+ channel was 0.24 µM. Besides, in the assay with guinea pig left atria, the EC50 was determined as 1 µM and the Emax was determined as 89%.
